Earlier results on 1 compound are cited in patent US9738932B2, “Biomarkers for cardiovascular side-effects induced by cox-2 inhibitory compounds” (FIRALIS SAS, priority 2005, dated 2017).

The structures appear in SMILES notation.

The test system of this data set is CXCL10 synthesis. The settings on record: by preventing PGE2 production and PKA activation; cited from earlier work.

For `CS(=O)(=O)Nc1ccc([N+](=O)[O-])cc1OC1CCCCC1` [NS398], the “effect on CXCL10 synthesis upon INFγ stimulation” value is listed as “potentiates”.
